Converted amounts (≈) assume the structure as drawn.
Conditions: 25 °C

| SMILES | solubility [µM] |
| --- | --- |
| Cc1ccc(C)c(C)c1 | 474 (≈ 57 µg/mL) |
| C=C | 4670 (≈ 131 µg/mL) |
| CC1CCCC1 | 499 (≈ 42 µg/mL) |
| C1CCCCCCC1 | 70.4 (≈ 7.9 µg/mL) |
| C=CCC | 3940 (≈ 221 µg/mL) |
| C=CC | 4750 (≈ 200 µg/mL) |
| C=CC=C | 13600 (≈ 735 µg/mL) |
| C1CCCCC1 | 654 (≈ 55 µg/mL) |
| CCCC | 1050 (≈ 61.2 µg/mL) |
| C#CC | 90800 (≈ 3640 µg/mL) |
| C=CC(=C)C | 9340 (≈ 636 µg/mL) |
| CCCCCC | 110 (≈ 9.5 µg/mL) |
